Experiments:
[1] = Ruminal VFA in fistulated feed-lot cattle (Table XV); format: in vivo; conditions: 30 g/ton, 24-day treatment
Text: The procedure used in testing cattle in this manner is also described in Raun's U.S. Pat. No. 3,839,557 (see Example 9). Table XV summarizes the results of such a test with A-32887 (Na-K salt) wherein five feed-lot cattle weighing approximately 425 kg. were in each group and the mean percent increases in ruminal propionate concentration were averaged over four analyses in a 24-day treatment period.

[2] = tested on: powdery mildew; experiment: Powdery mildew disease in bean plants, spray; format: in vivo; conditions: 400 ppm spray
Text: The A-32887 compounds are also useful in the treatment of certain plant diseases.

[3] = tested on: guinea pig left atria; experiment: Cardiac contractility of guinea pig left atria; conditions: 10^-5 molar; percentage of maximal force elicited by a challenge dose of norepinephrine
Text: The A-32887 compounds are potential cardiotonic agents. In tests using guinea pig left atria, A-32887 (Na-K salt) increased cardiac contractility. Response to this test is expressed as a percentage of the maximal force that could be elicited by a challenge dose of norepinephrine. A-32887 (Na-K salt), at a 10^-5 molar concentration, increased cardiac contractility by 28.0 ± 7.1 percent.

[4] = tested on: ATPase; experiment: ATPase inhibition in vitro using NaCl; format: biochemical
Text: In yet another aspect, the A-32887 compounds are active as inhibitors of the enzyme ATPase. ATPase, an alkali-metal-sensitive enzyme found in cell membranes, is involved in the energy necessary for active transport. "Active transport" refers to the energy-requiring series of operations whereby intracellular and extracellular fluids maintain their compositions. Inhibitors of ATPase reduce the energy required for active transport.

[5] = tested on: Mycoplasma hyorhinis; experiment: In vitro broth-dilution studies, mycoplasma (Table X); format: cell-based
Text: (§1) Activity against mycoplasma is another useful aspect of the antimicrobial activity of the A-32887 compounds. Mycoplasma species, also known as pleuropneumonia-like (PPLO) organisms, are pathogenic to man and various animals. Anti-mycoplasma agents are especially needed by the poultry industry. The MIC's of A-32887 (Na-K salt) against typical mycoplasma species, as determined by in vitro broth-dilution studies, are summarized in Table X: […]

[6] = tested on: Mycoplasma gallisepticum; experiment: as above; format: cell-based
Text: as §1

[7] = tested on: Mycoplasma synoviae; experiment: as above; format: cell-based
Text: as §1

[8] = tested on: Mycoplasma hyopneumoniae; experiment: as above; format: cell-based
Text: as §1

[9] = tested on: E. tenella, E. maxima and E. acervulina; experiment: Anticoccidial activity in chicks (Table XIII); format: in vivo; design: Average Lesion Score, Intestinal / Average Lesion Score, Cecal: scale not given here; conditions: for Percent Mortality: due to coccidiosis; for Percent Weight Gain: per survivor; for Oocysts/Bird: total days 5, 6 and 7 post-inoculation; for Feed/Gain: pens without deaths only
Text: ^2 Six replicates; 5 birds/each
^5 Pens without deaths, only
^6 Total days 5, 6 and 7 post-inoculation

[10] = tested on: acute swine dysentery; experiment: Swine dysentery test in pigs (Table XVII); format: in vivo
Experimental: In another aspect the A-32887 compounds are useful in the prevention and control of swine dysentery. A preferred method of administration to swine is by incorporation of an appropriate amount of an A-32887 compound into the feed ration. […] In this test, groups of four pigs were challenged orally with 5.0 ml of a colon-content/tissue suspension prepared from pigs suffering from acute swine dysentery. Treated pigs were challenged 24 hours after initiating feed treatment. The test was carried out over a period of 26 days, observing pigs daily, and weighing them weekly and on day 26.
*Fecal material for each group was rated daily with 0=normal, 1=slight
blood or mucus, 2=moderate blood or mucus, 3=marked blood or mucus. Index
is the total score per treatment for 25 days.

[11] = Ruminal propionate in sheep (Table XVI); format: in vivo; conditions: 15 g/ton, 19-day treatment, control 26.5
Text: Table XVI summarizes the results of a similar test in sheep with A-32887 (Na-K salt) wherein four sheep were in each group and the mean percent increases in ruminal propionate concentration were averaged over four analyses in a 19-day treatment period.

[12] = Acute toxicity, intraperitoneal, mice; format: in vivo; conditions: intraperitoneally
[13] = tested on: Streptococcus faecalis; experiment: Standard agar-dilution assay, MIC (Table VI); format: cell-based
Text: (§2) Antibiotic A-32887 inhibits the growth of pathogenic bacteria, especially gram-positive bacteria. Table VI summarizes the minimal inhibitory concentrations (MIC), as measured by standard agar-dilution assays, at which A-32887 (Na-K salt) inhibits certain bacteria.

[14] = tested on: Pasteurella multocida (bovine); experiment: Standard agar-dilution assay, MIC (Table VI); format: cell-based
Text: as §2

[15] = tested on: Staphylococcus aureus 3055; experiment: Standard agar-dilution assay, MIC (Table VI); format: cell-based
Text: as §2

[16] = tested on: Streptococcus sp.; experiment: Standard agar-dilution assay, MIC (Table VI); format: cell-based
Text: as §2

[17] = tested on: Staphylococcus sp.; experiment: Standard agar-dilution assay, MIC (Table VI); format: cell-based
Text: as §2

[18] = tested on: E. tenella and E. acervulina; experiment: Anticoccidial activity in chicks (Table XII); format: in vivo; design: Average Lesion Score, Intestinal / Average Lesion Score, Cecal: scale not given here; conditions: for Oocysts Per Bird: days 7-9; for Percent Mortality: due to coccidiosis; for Percent Weight Gain: normal controls = 100%
Experimental: ^1 6 replicates; 5 birds each
^2 Infection inoculum 48 hours post-medication onset
^4 Normal controls = 100%

[19] = tested on: rumen flora; experiment: Volatile-fatty-acid (VFA) production in treated vs control flasks (Table XIV)
[20] = tested on: coccidia; experiment: Feeding experiments in young chickens challenged with coccidia; format: in vivo, Eimeria species; conditions: feed levels as low as 40 ppm
[21] = tested on: E. tenella and E. maxima; experiment: Anticoccidial activity in chicks (Table XI); format: in vivo; design: Average Lesion Score, Total Intestinal / Average Lesion Score, Cecal: scale not given here; conditions: for Mortality: due to coccidiosis; for Feed/Gain: pens without deaths only; for Average Weight Gain: per survivor
Experimental: ^1 70,000 oocysts/bird of each of E. tenella and E. maxima
^2 Infected 48 hours postmedication; terminated seven days
^3 Four replicates; five birds/replicate
^6 Pens without deaths only

SMILES: CO[C@H]1CC[C@H](OC2[C@@H](C)[C@@](C)(O)O[C@H]([C@H]3CC[C@H]([C@@H]4CC[C@H]([C@@]5(C)O[C@]6(O[C@H](C[C@@H]7O[C@](O)([C@@H](O)C(=O)O)[C@@H](C)[C@H](OC)[C@@]7(C)OC)C[C@@H](OC)[C@H]6C)[C@H](C)[C@H]5OC)O4)O3)[C@H]2C)O[C@@H]1C.[K+].[Na+] (some centres unmarked) [A-32887 (Na-K salt)]
- Molar % Butyrate ([1]; control 8.1): 9.6 Molar %
- Molar % Propionate ([1]; control 17.4, * P<0.01): 27.1 Molar %
- Molar % Acetate ([1]; control 74.5, * P<0.01): 63.3 Molar %
- Total VFA ([1]; control 79.9): 79.6 mM/1.
- inhibition of powdery mildew disease [2]: inhibits powdery mildew disease
- increase in cardiac contractility [3]: 28.0 ± 7.1%
- ATPase inhibition [4]: inhibit ATPase
- MIC [5]: 25.0 µg/mL
- MIC [6]: 12.5 µg/mL
- MIC [7]: 3.12 µg/mL
- MIC [8]: 6.25 µg/mL
- Average Lesion Score, Cecal ([9]; 25 ppm): 3.9
- Average Lesion Score, Intestinal ([9]; 25 ppm): 1.1
- Percent Mortality ([9]; 25 ppm): 35%
- Percent Weight Gain ([9]; 25 ppm): 57%
- Oocysts/Bird ([9]; 25 ppm): 64.83 1×10^6
- Average Lesion Score, Cecal ([9]; 50 ppm): 3.8
- Average Lesion Score, Intestinal ([9]; 50 ppm): 1.8
- Percent Mortality ([9]; 50 ppm): 0%
- Feed/Gain ([9]; 50 ppm): 1.67
- Percent Weight Gain ([9]; 50 ppm): 79%
- Oocysts/Bird ([9]; 50 ppm): 35.78 1×10^6
- Average Lesion Score, Cecal ([9]; 75 ppm): 2.0
- Average Lesion Score, Intestinal ([9]; 75 ppm): 0.9
- Percent Mortality ([9]; 75 ppm): 0%
- Feed/Gain ([9]; 75 ppm): 1.49
- Percent Weight Gain ([9]; 75 ppm): 90%
- Oocysts/Bird ([9]; 75 ppm): 24.35 1×10^6
- Average Lesion Score, Cecal ([9]; 100 ppm): 0.1
- Average Lesion Score, Intestinal ([9]; 100 ppm): 0
- Percent Mortality ([9]; 100 ppm): 0%
- Feed/Gain ([9]; 100 ppm): 1.50
- Percent Weight Gain ([9]; 100 ppm): 93%
- Oocysts/Bird ([9]; 100 ppm): 6.49 1×10^6
- Final-Average Wt. per Pig ([10]; 100 g/ton in feed, 26 days): 30.3 lbs
- No. Died per No. in Group ([10]; 100 g/ton in feed, 26 days): 0/4
- No. with Colon Lesions/No. in Group ([10]; 100 g/ton in feed, 26 days): 2/4
- Diarrhea Index ([10]; 100 g/ton, total score per treatment for 25 days (0=normal to 3=marked blood or mucus)): 22
- Molar % Propionate [11]: 29.5 Molar %
- LD50 [12]: 37.5 mg/kg × 1
- MIC [13]: 6.25 µg/mL
- MIC [14]: 50.00 µg/mL
- MIC [15]: 6.25 µg/mL
- MIC [16]: 3.12 µg/mL
- MIC [17]: 1.56 µg/mL
- Average Lesion Score, Cecal ([18]; 62 ppm): 0.1
- Average Lesion Score, Intestinal ([18]; 62 ppm): 0.9
- Oocysts Per Bird ([18]; 62 ppm): 16.40 1×10^6
- Percent Mortality ([18]; 62 ppm): 0%
- Percent Weight Gain ([18]; 62 ppm): 97%
- Average Lesion Score, Cecal ([18]; 77 ppm): 0
- Average Lesion Score, Intestinal ([18]; 77 ppm): 0.7
- Oocysts Per Bird ([18]; 77 ppm): 5.48 1×10^6
- Percent Mortality ([18]; 77 ppm): 0%
- Percent Weight Gain ([18]; 77 ppm): 90%
- Average Lesion Score, Cecal ([18]; 100 ppm): 0.1
- Average Lesion Score, Intestinal ([18]; 100 ppm): 0.6
- Oocysts Per Bird ([18]; 100 ppm): 1.28 1×10^6
- Percent Mortality ([18]; 100 ppm): 0%
- Percent Weight Gain ([18]; 100 ppm): 85%
- Average Lesion Score, Cecal ([18]; 121 ppm): 0
- Average Lesion Score, Intestinal ([18]; 121 ppm): 0.3
- Oocysts Per Bird ([18]; 121 ppm): 0.4 1×10^6
- Percent Mortality ([18]; 121 ppm): 0%
- Percent Weight Gain ([18]; 121 ppm): 73%
- Ratio of Treated to Control, Total VFA mM/1. ([19]; 1 mcg/ml): 0.7498
- Ratio of Treated to Control, Molar % Acetate ([19]; 10 mcg/ml): 0.8857
- Ratio of Treated to Control, Molar % Butyrate ([19]; 10 mcg/ml): 0.7012
- Ratio of Treated to Control, Total VFA mM/1. ([19]; 10 mcg/ml): 1.0086
- Ratio of Treated to Control, Molar % Propionate ([19]; 10 mcg/ml, * P<0.01): 1.2919
- Mortality [20]: decreases
- number of lesions [20]: decreases
- Average Lesion Score, Cecal ([21]; 40 ppm): 1.6
- Average Lesion Score, Total Intestinal ([21]; 40 ppm): 4.9
- Mortality ([21]; 40 ppm in feed): 0
- Feed/Gain ([21]; 40 ppm): 1.89
- Average Weight Gain ([21]; 40 ppm): 176 g
- Average Lesion Score, Cecal ([21]; 60 ppm): 0.6
- Average Lesion Score, Total Intestinal ([21]; 60 ppm): 5.9
- Mortality ([21]; 60 ppm in feed): 0
- Feed/Gain ([21]; 60 ppm): 1.83
- Average Weight Gain ([21]; 60 ppm): 155 g
- Average Lesion Score, Cecal ([21]; 80 ppm): 0.3
- Average Lesion Score, Total Intestinal ([21]; 80 ppm): 3.0
- Mortality ([21]; 80 ppm in feed): 0
- Feed/Gain ([21]; 80 ppm): 1.83
- Average Weight Gain ([21]; 80 ppm): 182 g
- Average Lesion Score, Cecal ([21]; 100 ppm): 0
- Average Lesion Score, Total Intestinal ([21]; 100 ppm): 1.6
- Mortality ([21]; 100 ppm in feed): 0
- Feed/Gain ([21]; 100 ppm): 1.87
- Average Weight Gain ([21]; 100 ppm): 159 g

— patent US4133876A, “Antibiotic A-32887 and process for production thereof” (Eli Lilly and Company, priority 1977, dated 1979)
